Data taken from US20090088482A1, “Compositions and Methods For Treating Heart Failure” (The Trustees Of Columbia University In The City New York, priority 2003, published 2009).

Tests used:
[1] = test system: rats with chronic heart failure induced by coronary artery ligation; assay: Echocardiography and direct hemodynamic monitoring in rats with chronic heart failure induced by coronary artery ligation (Example 2); type: in vivo; conditions: 2 mg/kg/day oral, 8 weeks
Procedure: (§1) Chronic heart failure was induced by coronary artery ligation in rats, and was confirmed by echocardiography, three weeks post-surgery. Three groups of rats were studied: (1) Chronic heart failure without clenbuterol (n=7); (2) chronic heart failure+clenbuterol (2 mg/kg/day; n=5); and (3) rats after sham operation (n=11). After 8 weeks of oral clenbuterol therapy, echocardiography and direct hemodynamic monitoring were performed. Rat hearts were then harvested for ex vivo left ventricular pressure-volume relationship (LVPVR) tracings, histologic (trichrome) sections, and molecular assays. Western analysis for myocardial calcium-handling proteins (ryanodine receptors (RyR), SERCA2a, phospholamban, and calcium-sodium exchanger) was assessed by densitometry.

[2] = test system: ryanodine receptors (RyR); assay: Western analysis of myocardial calcium-handling proteins by densitometry: RyR (Example 2); type: in vivo, rats; conditions: 2 mg/kg/day oral, 8 weeks, untreated CHF 1.6±0.4, Sham 2.8±0.8
Procedure: as §1

SERCA2a = assay: Western analysis of myocardial calcium-handling proteins by densitometry: SERCA2a (Example 2); type: in vivo, rats; conditions: 2 mg/kg/day oral, 8 weeks, untreated CHF 1.7±0.5, Sham 2.2±0.4
Procedure: as §1

[3] = test system: rats with HF induced by LAD ligation; assay: Ex vivo end-diastolic pressure-volume relationships (EDPVR) (Example 5); type: in vivo, Sprague-Dawley rats; conditions: for passive LV Volume at 30 mmHg, normalized for heart weight: ex vivo EDPVR, HF 0.50, Sham 0.36
Procedure: A total of 69 rats were used in this study. LAD ligation surgery was performed in 60 rats, of which 37 (62%) survived three weeks post-surgery. Another 9 rats underwent a sham operation (group Sham), with 7 (78%) survivors. Three weeks post-operatively, echocardiography was performed to establish the baseline level of HF (as measured by fractional shortening). The LAD ligation rats were divided into 4 treatment groups matched for the degree of HF and were randomly assigned to one of the following therapies for 9 additional weeks: (1) rats receiving no therapy (group HF, n=9); (2) rats receiving high-dose clenbuterol at 1 mg/kg/day (group Clen, n=9); (3) rats receiving high-dose metoprolol at 200 mg/kg/day (group Meto, n=9); or (4) rats receiving concurrent high-dose clenbuterol at 1 mg/kg/day and high-dose metoprolol therapy at 200 mg/kg/day (group Clen+Meto, n=10).
An 18-gauge angiocatheter was placed into the LV through the aortic valve and connected to a three-way stopcock. A fine hemostat was placed on the atrial side of the mitral annulus to seal the LV. After eliminating any air from the system, LV pressures were measured using a […] Millar micromanometer introduced through the angiocatheter. While recording LV pressure using an analog-to-digital conversion reading system (Chart 4, version 4.2.4; ADInstruments, Colorado Springs, Colo.), saline was infused into the LV cavity in 50 μL increments using a calibrated 1 mL syringe. The infused fluid was withdrawn and measured to ensure that no leakage had occurred. Data was utilized only if >95% of the injected volume was recovered. Using commercial software (Igor Pro, version 4.0.5.1; WaveMetrics, Lake Oswego, Oreg.), values of LV pressure (P) and volume (V) were fitted according to the equation: […]
where β is the base constant and α is an index of ventricular stiffness, as previously described (Mirsky I. Assessment of passive elastic stiffness of cardiac muscle: mathetical concepts, physiologic and clinical considerations, directions of future research. Prog Cardiovasc Dis. 1976; 18:277-308). […]

ryanodine receptor (RyR) = assay: Western blot of calcium-handling protein expression: RyR (Example 5); type: in vivo, Sprague-Dawley rats; conditions: FIG. 6; not different from Sham
Procedure: (§2) Five rat hearts from each group (HF, Clen, Meto, Clen+Meto, and Sham) were randomly selected and used for analysis of calcium-handling protein expression levels. Lysates of LV tissue were obtained with the use of a homogenizer (Brinkmann Instruments, Westbury, N.Y.). Approximately 150 mg of heart tissue was placed in a seven-fold volume of lysis buffer (20 mM/L Na-HEPES, 4 mM/L EGTA, 1 mM/L DTT, pH 7.4) in the presence of proteinase inhibitors (0.1 mM/L leupeptin and 0.3 mM/L PMSF). The protein concentration was determined using a protein assay kit (Bio-Rad Laboratories, Hercules, Calif.). Samples (50 μg) were denatured at 95° C. and size-fractionated using SDS-polyacrylamide gel electrophoresis (PAGE) under reducing conditions. SDS-PAGE was performed using 7.5% separating and 5% stacking gels for SERCA2a and 5% separating and 4% stacking gels for RyR. Electrophoresis was performed in a Miniprotean II cell (Bio-Rad Laboratories, Hercules, Calif.) followed by transfer of proteins (using 34 V overnight at 4° C.) onto nitrocellulose in a mini trans-blot transfer cell (Bio-Rad Laboratories, Hercules, Calif.) filled with transfer buffer (25 m/L Tris-HCl, pH 8.3, 192 mM/L glycine and 20% methanol). […]
(§3) Optical densities of protein level signals were quantified with the use of a laser scanning densitometer (Molecular Dynamics, Palo Alto, Calif.) in a blinded manner. […]

[4] = test system: sarcoplasmic reticulum calcium-ATPase (SERCA2a); assay: Western blot of calcium-handling protein expression: SERCA2a (Example 5); type: in vivo, Sprague-Dawley rats; conditions: FIG. 6; not different from Sham
Procedure: as §2, §3

[5] = ten of 15 LVAD patients; with ACE inhibition, β-1 selective blockade, spironolactone; cited from earlier work

| SMILES | LVEDP ([1]; untreated CHF 27±5, Sham 12±3) | LV fractional area change ([1]; untreated CHF 35±3, Sham 53±2) | LV pressure ([1]; untreated CHF 94±2.8, Sham 114±3.3) | LVdP/dt ([1]; untreated CHF 2,570±384, Sham 3,728±193) | Protein level of RyR [2] | Protein level of SERCA2a (SERCA2a) | passive LV Volume at 30 mmHg, normalized for heart weight [3] | RyR protein expression level relative to tubulin, versus HF group (ryanodine receptor (RyR)) | SERCA2a protein expression level relative to tubulin, versus HF group [4] | rate of myocardial recovery (LVAD explantation for recovery) [5] | shift of EDPVR curve versus Sham rats ([3]; ex vivo, normalized for heart weight) |
| --- | --- | --- | --- | --- | --- | --- | --- | --- | --- | --- | --- |
| CC(C)(C)NCC(O)c1cc(Cl)c(N)c(Cl)c1 (stereo not drawn) [Clen, clenbuterol] | 15±6 mmHg | 42±1% | 100±6 mmHg | 3,250±325 mmHg/s | 2.2±0.7 | 2.0±0.2 | 0.42 mL/gm of heart weight | significantly improved | significantly improved | 67% |  |
| COCCc1ccc(OCC(O)CNC(C)C)cc1 (stereo not drawn) [Meto, metoprolol] |  |  |  |  |  |  | 0.51 mL/gm of heart weight |  |  |  | rightward shift |
